Like-named read-outs stand apart in the source and are kept apart here.
Tests used:
COVID-19 = conditions: patients with confirmed COVID-19; FVP orally 1600 mg twice a day on day 1, 600 mg twice a day days 2-14, plus interferon-α aerosol 5 million units twice a day; control lopinavir/ritanovir 400 mg/100 mg twice a day; cited from earlier work
SARS-CoV-2 = assay type: in vivo

NC(=O)c1nc(F)c[nH]c1=O [FVP, Favipiravir]
viral clearance (COVID-19): 4 days
virus elimination rate (SARS-CoV-2; patients with FVP dose <43 mg/kg on day 1): 44%
virus elimination rate (SARS-CoV-2; patients with FVP dose ≥43 mg/kg on day 1): 79%
